Assay results: ChEMBL document CHEMBL1147199, “Exploration of the correlation between the structure, hemolytic activity, and cytotoxicity of steroid saponins” (Bioorg Med Chem, 2007)

Experiment: Cytotoxicity against human erythrocytes assessed as hemolytic activity after 60 mins
Type: cell-based, Erythrocyte
Conditions: read-out: HD50

| Structure (SMILES) | HC50 at 1 h |
| --- | --- |
| CCCCCC(=O)O[C@H]1C[C@@H]2[C@H](CC[C@]3(C)[C@@H]4[C@H](C[C@@H]23)O[C@]2(CC[C@@H](C)CO2)[C@H]4C)[C@@]2(C)C[C@@H](O)[C@H](O[C@@H]3O[C@H](CO)[C@@H](O[C@H]4O[C@H](C)[C@@H](O)[C@H](O)[C@@H]4O)[C@H](O)[C@H]3O[C@H]3O[C@H](C)[C@@H](O)[C@H](O)[C@@H]3O)C[C@H]12 | 7.6 µM |
| C[C@@H]1CC[C@@]2(OC1)O[C@H]1C[C@H]3[C@@H]4CC[C@H]5C[C@@H](O[C@@H]6O[C@H](CO)[C@H](O[C@H]7O[C@H](C)[C@@H](O)[C@H](O)[C@@H]7O)[C@H](O)[C@H]6O[C@@H]6O[C@@H](C)[C@H](O)[C@@H](O)[C@H]6O)[C@H](O)C[C@]5(C)[C@H]4CC[C@]3(C)[C@H]1[C@@H]2C | 9.6 µM |
| C/C=C/C=C/C(=O)NC[C@H]1O[C@@H](O[C@H]2CC[C@@]3(C)C(=CC[C@H]4[C@@H]5C[C@@H]6O[C@]7(CC[C@@H](C)CO7)[C@@H](C)[C@@H]6[C@@]5(C)CC[C@@H]43)C2)[C@H](O[C@H]2O[C@H](C)[C@@H](O)[C@H](O)[C@@H]2O)[C@@H](O)[C@@H]1O[C@H]1O[C@H](C)[C@@H](O)[C@H](O)[C@@H]1O | 9.3 µM |
| C=CCCCCCCCCC(=O)NC[C@H]1O[C@@H](O[C@H]2CC[C@@]3(C)C(=CC[C@H]4[C@@H]5C[C@@H]6O[C@]7(CC[C@@H](C)CO7)[C@@H](C)[C@@H]6[C@@]5(C)CC[C@@H]43)C2)[C@H](O[C@H]2O[C@H](C)[C@@H](O)[C@H](O)[C@@H]2O)[C@@H](O)[C@@H]1O[C@H]1O[C@H](C)[C@@H](O)[C@H](O)[C@@H]1O | > 50 µg/mL |
| C[C@@H]1CC[C@@]2(OC1)O[C@H]1C[C@H]3[C@@H]4CC[C@H]5C[C@@H](O[C@@H]6O[C@H](CO)[C@H](O)[C@H](O)[C@H]6O[C@H]6O[C@H](C)[C@@H](O)[C@H](O)[C@@H]6O)[C@H](O)C[C@]5(C)[C@H]4CC[C@]3(C)[C@H]1[C@@H]2C | 7.5 µM |
| C[C@@H]1CC[C@@]2(OC1)O[C@H]1C[C@H]3[C@@H]4CC=C5C[C@@H](O[C@@H]6O[C@H](CNC(=O)CCCCl)[C@@H](O[C@H]7O[C@H](C)[C@@H](O)[C@H](O)[C@@H]7O)[C@H](O)[C@H]6O[C@H]6O[C@H](C)[C@@H](O)[C@H](O)[C@@H]6O)CC[C@]5(C)[C@H]4CC[C@]3(C)[C@H]1[C@@H]2C | 20.9 µM |
| C[C@@H]1CC[C@@]2(OC1)O[C@H]1C[C@H]3[C@@H]4CC=C5C[C@@H](O[C@@H]6O[C@H](CNC(=O)c7ccccc7)[C@@H](O[C@H]7O[C@H](C)[C@@H](O)[C@H](O)[C@@H]7O)[C@H](O)[C@H]6O[C@H]6O[C@H](C)[C@@H](O)[C@H](O)[C@@H]6O)CC[C@]5(C)[C@H]4CC[C@]3(C)[C@H]1[C@@H]2C | 10.7 µM |
| C[C@@H]1CC[C@@]2(OC1)O[C@H]1C[C@H]3[C@@H]4CC=C5C[C@@H](O[C@@H]6O[C@H](CN=[N+]=[N-])[C@@H](O[C@H]7O[C@H](C)[C@@H](O)[C@H](O)[C@@H]7O)[C@H](O)[C@H]6O[C@H]6O[C@H](C)[C@@H](O)[C@H](O)[C@@H]6O)CC[C@]5(C)[C@H]4CC[C@]3(C)[C@H]1[C@@H]2C | > 50 µg/mL |
| C[C@@H]1CC[C@@]2(OC1)O[C@H]1C[C@H]3[C@@H]4CC=C5C[C@@H](O[C@@H]6O[C@H](CNC(=O)c7ccccc7I)[C@@H](O[C@H]7O[C@H](C)[C@@H](O)[C@H](O)[C@@H]7O)[C@H](O)[C@H]6O[C@H]6O[C@H](C)[C@@H](O)[C@H](O)[C@@H]6O)CC[C@]5(C)[C@H]4CC[C@]3(C)[C@H]1[C@@H]2C | 7.4 µM |
| C[C@@H]1CC[C@@]2(OC1)O[C@H]1C[C@H]3[C@@H]4CC=C5C[C@@H](O[C@@H]6O[C@H](CNC(=O)C(F)(F)F)[C@@H](O[C@H]7O[C@H](C)[C@@H](O)[C@H](O)[C@@H]7O)[C@H](O)[C@H]6O[C@H]6O[C@H](C)[C@@H](O)[C@H](O)[C@@H]6O)CC[C@]5(C)[C@H]4CC[C@]3(C)[C@H]1[C@@H]2C | 18.5 µM |
| CCCCCCCCCCCCCCCCCC(=O)NC[C@H]1O[C@@H](O[C@H]2CC[C@@]3(C)C(=CC[C@H]4[C@@H]5C[C@@H]6O[C@]7(CC[C@@H](C)CO7)[C@@H](C)[C@@H]6[C@@]5(C)CC[C@@H]43)C2)[C@H](O[C@H]2O[C@H](C)[C@@H](O)[C@H](O)[C@@H]2O)[C@@H](O)[C@@H]1O[C@H]1O[C@H](C)[C@@H](O)[C@H](O)[C@@H]1O | > 50 µg/mL |
| C[C@@H]1CC[C@@]2(OC1)O[C@H]1C[C@H]3[C@@H]4CC=C5C[C@@H](O[C@@H]6O[C@H](CNC(=O)c7ccc([N+](=O)[O-])cc7)[C@@H](O[C@H]7O[C@H](C)[C@@H](O)[C@H](O)[C@@H]7O)[C@H](O)[C@H]6O[C@H]6O[C@H](C)[C@@H](O)[C@H](O)[C@@H]6O)CC[C@]5(C)[C@H]4CC[C@]3(C)[C@H]1[C@@H]2C | 39 µM |
| C[C@@H]1CC[C@@]2(OC1)O[C@H]1C[C@H]3[C@@H]4CC=C5C[C@@H](O[C@@H]6O[C@H](CN)[C@@H](O[C@H]7O[C@H](C)[C@@H](O)[C@H](O)[C@@H]7O)[C@H](O)[C@H]6O[C@H]6O[C@H](C)[C@@H](O)[C@H](O)[C@@H]6O)CC[C@]5(C)[C@H]4CC[C@]3(C)[C@H]1[C@@H]2C | 24.8 µM |
| COc1ccc(C(=O)NC[C@H]2O[C@@H](O[C@H]3CC[C@@]4(C)C(=CC[C@H]5[C@@H]6C[C@@H]7O[C@]8(CC[C@@H](C)CO8)[C@@H](C)[C@@H]7[C@@]6(C)CC[C@@H]54)C3)[C@H](O[C@H]3O[C@H](C)[C@@H](O)[C@H](O)[C@@H]3O)[C@@H](O)[C@@H]2O[C@H]2O[C@H](C)[C@@H](O)[C@H](O)[C@@H]2O)cc1 | 9.5 µM |
| CCCCCCCCCC(=O)O[C@H]1C[C@@H]2[C@H](CC[C@]3(C)[C@@H]4[C@H](C[C@@H]23)O[C@]2(CC[C@@H](C)CO2)[C@H]4C)[C@@]2(C)C[C@@H](O)[C@H](O[C@@H]3O[C@H](CO)[C@@H](O[C@H]4O[C@H](C)[C@@H](O)[C@H](O)[C@@H]4O)[C@H](O)[C@H]3O[C@H]3O[C@H](C)[C@@H](O)[C@H](O)[C@@H]3O)C[C@H]12 | 6.7 µM |
| CC(=O)NC[C@H]1O[C@@H](O[C@H]2CC[C@@]3(C)C(=CC[C@H]4[C@@H]5C[C@@H]6O[C@]7(CC[C@@H](C)CO7)[C@@H](C)[C@@H]6[C@@]5(C)CC[C@@H]43)C2)[C@H](O[C@H]2O[C@H](C)[C@@H](O)[C@H](O)[C@@H]2O)[C@@H](O)[C@@H]1O[C@H]1O[C@H](C)[C@@H](O)[C@H](O)[C@@H]1O | > 50 µg/mL |
| CCCCCCCCCCCCCC(=O)NC[C@H]1O[C@@H](O[C@H]2CC[C@@]3(C)C(=CC[C@H]4[C@@H]5C[C@@H]6O[C@]7(CC[C@@H](C)CO7)[C@@H](C)[C@@H]6[C@@]5(C)CC[C@@H]43)C2)[C@H](O[C@H]2O[C@H](C)[C@@H](O)[C@H](O)[C@@H]2O)[C@@H](O)[C@@H]1O[C@H]1O[C@H](C)[C@@H](O)[C@H](O)[C@@H]1O | > 50 µg/mL |
